Entries after “also recorded” stand apart in the source; their conditions may differ. Like-named read-outs stand apart in the source and are kept apart here.
Assays:
Format in all cases: cell-based
[1] = test system: BzATP-induced release of IL-1β from human monocytic THP-1 cells; experiment: BzATP-induced IL-1β release by LPS-primed human monocytic THP-1 cells (ELISA); settings: ACh 10 μM applied shortly before BzATP
Procedure: THP-1 cells were primed with lipopolysaccharide (LPS; 1 μg/mL, 5 h) followed by stimulation with the P2X7 receptor agonist BzATP (2′/3′-O-(4-benzoylbenzoyl)-adenosine-5′-triphosphate, tri(triethylammonium) salt) for 40 min to induce IL-1β release, which was quantified by ELISA.
Experiments on human monocytic THP-1 cells (German Collection of Microorganisms and Cell Cultures, Braunschweig, Germany, Cat# ACC16) were performed as described before. […] The supernatants were collected and stored for later IL-1β measurements using the Human IL-1β/IL-1F2 DuoSet ELISA from R&D Systems (Minneapolis MN, USA, Cat# DY201). Cell viability was assessed by measuring lactate dehydrogenase (LDH) activity in the supernatants using the CytoTox 96 Non-Radioactive Cytotoxicity Assay (Promega, Madison WI, USA; Cat# G1780). LDH activities were expressed as a percentage of total LDH activity from lysed control cells. Data on the BzATP-induced IL-1β release and LDH activity were analyzed using SPSS (Version 29.0.2.0, IBM, Armonk, NY, United States) and visualized using Inkscape version 0.48.5 r10040 (Free and Open Source Software licensed under the GPL). The data were analyzed first by the Friedman test.

hα9α10 nAChRs [2] = biological target: T1, hα9α10 nAChRs (Homo sapiens, UniProt Q9GZZ6+Q9UGM1); experiment: Two-electrode voltage clamp, inhibition of ACh-evoked currents at hα9α10 nAChRs expressed in Xenopus laevis oocytes; settings: for IC50 / n H (Hill coefficient of inhibition): 6 μM ACh; for IC50: 5 min preincubation with compound, holding potential −80 mV
T1 construct: host or cells: Xenopus laevis oocytes, cRNA-injected (α9:α10 cRNA ratio 1:1)
Excerpt: (§1) The protocols were approved by the Animal Ethics Committees of the Victor Chang Cardiac Research Institute, Sydney, and the University of Wollongong (project number AE 20/17). Human α9 and α10 nAChR clones were obtained from OriGene (Rockville, MD, USA) and subcloned into the pT7TS vector. The human α7 nAChR clone, in the plasmid pMXT, was kindly provided by J. Lindstrom (University of Pennsylvania, USA). Constructs of human nAChR subunits were linearized and used for in vitro cRNA transcription with the SP6/T7 mMessage mMachine transcription kit (AMBION, Forster City, CA, USA).
(§2) The cRNA concentration was verified spectrophotometrically and by gel electrophoresis.
(§3) Electrophysiological recordings were conducted 2–5 days after cRNA injection using a HiClamp automated two-electrode voltage-clamp screening system (MultiChannel Systems GmbH, Reutlingen, Germany) with a holding potential of –80 mV. To prevent the activation of endogenous Ca^2+-activated chloride channels due to the Ca^2+ permeability of α9-containing nAChRs, oocytes were preincubated with 100 μM BAPTA-AM for approximately 3 h.
For concentration–response experiments assessing modulation of ACh-evoked responses, oocytes were initially superfused with ND96 or ND115 solution, depending on the receptor subtype. […] After ACh application, a 3 min washout was performed. Oocytes were then incubated with the test compound for 5 min, followed by coapplication of the compound and ACh in a continuously flowing bath solution. All compounds were prepared in ND96 or ND115 with 0.1% bovine serum albumin (BSA).

hα9α10 nAChRs [3] = biological target: T1, hα9α10 nAChRs; experiment: Two-electrode voltage clamp, compound-evoked currents (compound applied alone) at hα9α10 nAChRs in Xenopus laevis oocytes
Excerpt: as §1, §2, §3
Concentration–response experiments assessing compound-evoked currents were performed by initially superfusing α9-containing nAChRs oocytes with ND115 solution. Test compounds were then applied at concentrations ranging from 300 pM to 30 μM, followed by a 3 min washout period.

[4] = compound applied alone (300 pM to 30 μM), normalized to response at highest concentration, read-out: EC50

T1 sequence (Q9UGM1 26-479 limits assumed): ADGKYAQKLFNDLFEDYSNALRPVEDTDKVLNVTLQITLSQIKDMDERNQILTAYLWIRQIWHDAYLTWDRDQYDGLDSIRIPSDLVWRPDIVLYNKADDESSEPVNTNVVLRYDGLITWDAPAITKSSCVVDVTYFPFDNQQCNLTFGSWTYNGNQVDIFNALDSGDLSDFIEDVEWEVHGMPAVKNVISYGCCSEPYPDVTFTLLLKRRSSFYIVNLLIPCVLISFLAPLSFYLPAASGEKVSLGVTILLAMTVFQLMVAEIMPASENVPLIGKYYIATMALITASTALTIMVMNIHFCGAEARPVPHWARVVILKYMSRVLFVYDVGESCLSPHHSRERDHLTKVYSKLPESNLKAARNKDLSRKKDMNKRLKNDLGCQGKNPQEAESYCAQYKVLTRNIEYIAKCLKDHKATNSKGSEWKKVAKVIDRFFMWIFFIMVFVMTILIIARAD
T1 sequence (Q9GZZ6 25-450): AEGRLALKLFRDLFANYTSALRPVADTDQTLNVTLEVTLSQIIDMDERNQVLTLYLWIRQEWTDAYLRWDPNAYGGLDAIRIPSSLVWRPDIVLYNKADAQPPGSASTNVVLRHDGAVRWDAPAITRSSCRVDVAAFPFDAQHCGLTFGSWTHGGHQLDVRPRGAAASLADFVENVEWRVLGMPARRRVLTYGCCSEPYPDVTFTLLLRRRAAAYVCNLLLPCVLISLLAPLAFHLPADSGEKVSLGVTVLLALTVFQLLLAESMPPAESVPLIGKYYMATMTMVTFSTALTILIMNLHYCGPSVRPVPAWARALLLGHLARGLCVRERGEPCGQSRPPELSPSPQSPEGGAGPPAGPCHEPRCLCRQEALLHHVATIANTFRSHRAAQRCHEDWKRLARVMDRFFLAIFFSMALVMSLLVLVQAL

| Structure (SMILES) | Effect on BzATP-induced IL-1β release [1] | IC50 (hα9α10 nAChRs [2]) | EC50 (hα9α10 nAChRs [3]; [4]) | IC50 ratio to Cpd 1 (hα9α10 nAChRs [2]) | n H (Hill coefficient of inhibition) (hα9α10 nAChRs [2]) | EC50 ratio to Cpd 1 (hα9α10 nAChRs [3]) | n H (Hill coefficient of activation) (hα9α10 nAChRs [3]; compound applied alone) | EC50 (hα9α10 nAChRs [3]; compound applied alone, read-out: EC50) | EC50 (hα9α10 nAChRs [3]; compound applied alone (300 pM to 30 μM), normalized to response at highest concentration) |
| --- | --- | --- | --- | --- | --- | --- | --- | --- | --- |
| CC(=O)OCC[N+](C)(C)C [ACh, acetylcholine] | significantly reduced |  |  |  |  |  |  |  |  |
| CC[N+](CC)(CC)CCOc1ccc(CCc2ccccc2)cc1 [Compound 4] |  | 189 nM | 1140 nM |  |  |  |  |  |  |
| C[N+](C)(CCOc1ccc(/C=C/c2ccccc2)cc1)C1CCOCC1.[I-] [Compound 6, (E)-N,N-Dimethyl-N-(2-(4-styrylphenoxy)ethyl)tetrahydro-2H-pyran-4-aminium Iodide] |  | 55 nM | 185 nM | 0.9 | 2.1 | 0.5 | 2.4 |  |  |
| C[N+](C)(CCOc1ccc(/C=C/c2ccccc2)cc1)C1CCCC1.[I-] [Compound 7, (E)-N,N-Dimethyl-N-(2-(4-styrylphenoxy)ethyl)cyclopentanaminium Iodide] |  | 22.1 nM | 175 nM | 0.4 | 1.7 | 0.5 | 1.6 |  |  |
| C[N+](C)(CCOc1ccc(/C=C/c2ccccc2)cc1)C1CCCCCC1.[I-] [Compound 8, (E)-N,N-Dimethyl-N-(2-(4-styrylphenoxy)ethyl)cycloheptanaminium Iodide] |  | 124 nM | 300 nM | 2.1 | 2.6 | 0.8 | 1.6 |  |  |
| C[N+](C)(CCOc1ccc(/C=C/c2ccccc2)cc1)c1ccccc1.[I-] [Compound 9, (E)-N,N-Dimethyl-N-(2-(4-styrylphenoxy)ethyl)benzenaminium Iodide] |  | 95.1 nM | 474 nM | 1.6 | 2.1 | 1.2 | 3.3 |  |  |
| C[N+](C)(CCOc1ccc(/C=C/c2ccccc2)cc1)Cc1ccccc1.[Br-] [Compound 10, (E)-N-Benzyl-N,N-dimethyl-2-(4-styrylphenoxy)ethanaminium Bromide] |  | 124 nM | 448 nM | 2.1 | 2.1 | 1.2 | 2.4 |  |  |
| C[N+](CCOc1ccc(/C=C/c2ccccc2)cc1)(C1CCCC1)C1CCCC1.[I-] [Compound 12, (E)-N-Cyclopentyl-N-methyl-N-(2-(4-styrylphenoxy)ethyl)cyclopentanaminium Iodide] |  | 378 nM | 1710 nM | 6.3 | 3.0 | 4.4 | 1.2 |  |  |
| C[N+](CCOc1ccc(/C=C/c2ccccc2)cc1)(Cc1ccccc1)Cc1ccccc1 [Compound 13] |  | 1110 nM | 7040 nM |  |  |  |  | > 5000 nM |  |
| C[N+](C)(CCCOc1ccc(/C=C/c2ccccc2)cc1)C1CCCCC1.[I-] [Compound 14, (E)-N,N-Dimethyl-N-(3-(4-styrylphenoxy)propyl)cyclohexanaminium Iodide] |  | 98.9 nM | 511 nM | 1.6 | 2.1 | 1.3 | 3.0 |  |  |
| C[N+](C)(CCCCOc1ccc(/C=C/c2ccccc2)cc1)C1CCCCC1.[I-] [Compound 15, (E)-N,N-Dimethyl-N-(4-(4-styrylphenoxy)butyl)cyclohexanaminium Iodide] |  | 124 nM | 1470 nM | 2.1 | 2.0 | 3.8 | 1.4 |  |  |
| CC[N+](CC)(CC)CCOc1ccc(-c2ccccc2)cc1 [Compound 17] |  | 117 nM | 479 nM | 1.9 | 1.4 | 1.2 | 3.3 |  |  |
| CC[N+](CC)(CC)CCOc1ccc(C#Cc2ccccc2)cc1 [Compound 18] |  | 89 nM | 550 nM | 1.5 | 1.8 | 1.4 | 2.2 |  |  |
| CC[N+](CC)(CC)CCOc1ccc(OCc2ccccc2)cc1 [Compound 19] |  | 207 nM | 1020 nM | 3.4 | 1.6 | 2.6 | 1.9 |  |  |
| CC[N+](CC)(CC)CCOc1ccc(COc2ccccc2)cc1 [Compound 20] |  | 139 nM |  | 2.3 | 1.7 (1.6–1.8) [8] |  |  |  | failed to activate; also recorded: failed to evoke currents; also recorded: No activity |

Source: paper PMC12751000, “Dual Agonist/Antagonist Modulation of α9-Containing Nicotinic Acetylcholine Receptors by 2‑Ammoniumethyl Ethers of Stilbenol and Stilbenol Analogues” (Journal of Medicinal Chemistry, 2025)
